The compounds below were run against PIK3CB;PIK3CG;PIK3CD;PIK3CA (human) (UniProt P48736) (assay: Inhibition of PIK3CA/PIK3CB/PIK3CD/PIK3CG Kinase Activity).

SMILES | IC50
COC[C@H]1OC(=O)/C(=C/Sc2ccccc2)C2=C(O)C(=O)C3=C([C@H](OC(C)=O)C[C@]4(C)C(=O)CC[C@@H]34)[C@]21C | 1 nM
C=CCN/C=C1/C(=O)O[C@H](COC)[C@@]2(C)C1=C(O)C(=O)C1=C2[C@H](OC(C)=O)C[C@]2(C)C(=O)CC[C@@H]12 | 7.5 nM
COC[C@H]1OC(=O)/C(=C/SC(C)C)C2=C(O)C(=O)C3=C([C@H](OC(C)=O)C[C@]4(C)C(=O)CC[C@@H]34)[C@]21C | 0.1 nM
COC[C@H]1OC(=O)/C(=C/N(C)Cc2ccccc2)C2=C(O)C(=O)C3=C([C@H](OC(C)=O)C[C@]4(C)C(=O)CC[C@@H]34)[C@]21C | 0.8 nM
COC[C@H]1OC(=O)/C(=C/N2CCCC2)C2=C(O)C(=O)C3=C([C@H](OC(C)=O)C[C@]4(C)C(=O)CC[C@@H]34)[C@]21C | 1.1 nM
COC[C@H]1OC(=O)/C(=C/NCCc2ccccc2)C2=C(O)C(=O)C3=C([C@H](OC(C)=O)C[C@]4(C)C(=O)CC[C@@H]34)[C@]21C | 2 nM
C=CCN(/C=C1/C(=O)O[C@H](COC)[C@@]2(C)C1=C(O)C(=O)C1=C2[C@H](OC(C)=O)C[C@]2(C)C(=O)CC[C@@H]12)CC=C | 0.1 nM
COC[C@H]1OC(=O)/C(=C/NCCCN(C)C)C2=C(O)C(=O)C3=C([C@H](OC(C)=O)C[C@]4(C)C(=O)CC[C@@H]34)[C@]21C | 1 nM
COC[C@H]1OC(=O)/C(=C/N(Cc2ccccc2)Cc2ccccc2)C2=C(O)C(=O)C3=C([C@H](OC(C)=O)C[C@]4(C)C(=O)CC[C@@H]34)[C@]21C | 0.3 nM
COC[C@H]1OC(=O)/C(=C/NCC(N)=O)C2=C(O)C(=O)C3=C([C@H](OC(C)=O)C[C@]4(C)C(=O)CC[C@@H]34)[C@]21C | 10 nM
COC[C@H]1OC(=O)/C(=C/N)C2=C(O)C(=O)C3=C([C@H](OC(C)=O)C[C@]4(C)C(=O)CC[C@@H]34)[C@]21C | 2 nM

— the Kinase Knowledgebase extract (Sharma et al. 2016)
